Key:
[1] = test system: human breast cancer MDA-MB-231 cell line; experiment: AlamarBlue cytotoxicity, BPBPA series, MDA-MB-231; type: cell-based; settings: for IC50: Homo sapiens
Description: (§1) Cell culture methods. MCF-7, MDA-MB-231, and hFOB 1.19 cell lines were incubated employing DMEM (37° C.) and DMEM: F12 (34° C.) medium, respectively, in a 5% CO2. Cell lines were supplemented using 10% FBS and 1% Pen-Strep and medium exchange was performed twice a week. Cell passages were carried out at 80% confluency.
(§2) Cell-based assays. Cell lines were seeded in 96 well plates at a density of 5×10^3 cells/mL, cells were incubated for 24 h before treatment. Both cell lines were treated with 100 μL of BPBPA (0-400 μM), LET (0-200 μM), unloaded and loaded nano-Ca@BPBPA (0-50 μM). All cell-based assays were performed for 24, 48, and 72 h of treatment. Control groups were treated with media (DMEM or DMEM: F12) supplemented with 1% Pen-Strep. Then, the media was removed and replaced with 100 μL of 10% AlamarBlue® solution. The 96 well plates were incubated for 4 h before measurements. Then, the fluorescence was assessed at 560 nm of excitation and λmax 590 nm of emission. The cell viability (%) was evaluated by contrasting the percentage of live cells of the control groups with the cells treated with BPBPA, LET, unloaded and loaded nano-Ca@BPBPA. The half-maximal inhibitory concentration (IC50) was determined for BPBPA and letrozole employing the dose-response curves (% cell live vs. concentration). The relative cell live (% RCL) was assessed for the unloaded and loaded nano-Ca@BPBPA, utilizing LET as a control group. The IC50 and % RCL were plotted using the GraphPad Prism software vs. 9.3.0.
(§3) The cytotoxicity of BPBPA (control), LET (control), nano-Ca@BPBPA (control), and drug-loaded nano-Ca@BPBPA (experimental) was investigated employing the human breast cancer, MCF-7 and MDA-MB-231, and the human osteoblast, hFOB 1.19, cell lines. The human MCF-7 cell line represents an ER-positive breast cancer model with estrogen, progesterone, and glucocorticoid receptors.^1 While, the human MDA-MB-231 cells correspond to a model of ER-negative breast cancer. Both selected cancer cell lines can be implicated in the development and progress of bone metastases in patients.^40,41 The human fetal hFOB 1.19 cells represent a homogeneous osteoblast-like (non-cancerous) model commonly employed to assess osteoblast differentiation.^42 The cytotoxicity of these materials was evaluated by determining the IC50 and % RCL. […] Similar results were found for MDA-MB-231 and hFOB 1.19 cell lines treated with LET (IC50 >200 μM) at the same time points (Supporting Information).
Cell culture methods. MCF-7 and MDA-MB-231 were incubated employing DMEM media at 37° C. in 5% CO2. The hFOB 1.19 cell lines were incubated using DMEM: F12 at 34° C. in 5% CO2. Cell lines were supplemented using 10% FBS and 1% Pen-Strep. The media was exchanged twice per week. Cell passages were carried out at 80% confluency.
Seeding. Cell lines were seeded in 96 well plates at a density of […] cells/mL; cells were incubated for 24 h before each treatment.
Treatment. Cell lines were treated with 100 μL of BPBPA (0-400 μM), LET (0-200 μM), unloaded and loaded nano-Ca@BPBPA (0.5-50 μM). Control groups were treated with media (DMEM or DMEM: F12) supplemented with 1% Pen-Strep. All cell-based assays were performed after 24, 48, and 72 h of treatment and in triplicate.
AlamarBlue@assay. To determine the cell viability, the media was removed and replaced with 100 μL of 10% AlamarBlue® solution. The 96 well plates were incubated for 4 h before measurements. Then, the fluorescence was assessed at 560 nm of excitation and λmax 590 nm of emission.

[2] = test system: human osteoblast hFOB 1.19 cell line; experiment: AlamarBlue cytotoxicity, BPBPA series, hFOB 1.19; type: cell-based; settings: for IC50: Homo sapiens, Osteoblast
Description: as §1, §2, §3
Cell culture methods. MCF-7 and MDA-MB-231 were incubated employing DMEM media at 37° C. in 5% CO2. The hFOB 1.19 cell lines were incubated using DMEM: F12 at 34° C. in 5% CO2. […]
AlamarBlue@assay. […] Then, the fluorescence was assessed at 560 nm of excitation and λmax 590 nm of emission.

[3] = Hydroxyapatite (HA) affinity/binding assay of 2,2′-BPBPA and nano-Ca@2,2′-BPBPA; settings: 0.5 mg/mL, HA 20 mg, PBS, duplicate
[4] = FaSSGF pH 1.60

Question: With `N#Cc1ccc(C(c2ccc(C#N)cc2)n2cncn2)cc1` [LET, letrozole] as the molecule, how does the “% RCL” value ([1]; 12.5 μM, 72 h) read?
Answer: Its value is 99±1%.

Question: What about the “% RCL” value ([1]; 50 μM, 24 h) of the same molecule?
Answer: The value was about 86%.

Question: And the “% RCL” value ([1]; 50 μM, 48 h)?
Answer: Its value is about 83%.

Question: What about the “% RCL” value ([1]; 50 μM, 72 h) of the same molecule?
Answer: The value was about 82%.

Question: What about the IC50 ([1]; 24 h) of the same molecule?
Answer: The IC50 was over 200 µM.

Question: And the IC50 ([1]; 48 h)?
Answer: The IC50 was over 200 µM.

Question: What about the IC50 ([1]; 72 h) of the same molecule?
Answer: The IC50 was over 200 µM.

Question: And the “% RCL” value ([2]; 12.5 μM, 72 h)?
Answer: Its value is 100±1%.

Question: And the IC50 ([2]; 24 h)?
Answer: The IC50 was over 200 µM.

Question: And the IC50 ([2]; 48 h)?
Answer: The IC50 was over 200 µM.

Question: What about the IC50 ([2]; 72 h) of the same molecule?
Answer: Its IC50 is over 200 µM.

Question: With `O=P(O)(O)c1ccc(-c2ccc(P(=O)(O)O)cn2)nc1` [2,2′-BPBPA, 2,2′-bipyridine-5,5′-bisphosphonic acid] as the molecule, how does the “Amount (%) bound to HA, Mean” value ([3]; 5 d) read?
Answer: The value was 82%.

Question: What about the “Amount (%) bound to HA, Mean” value ([3]; 6 d) of the same molecule?
Answer: Its value is 88%.

Question: For `O=P(O)(O)C(O)(Cc1cccnc1)P(=O)(O)O` [RISE, Monosodium risedronate hemipentahydrate], which “time to reach maximum dissolution” value [4] is on record?
Answer: The value was 1 min.
